Measured values from article PMC7580834, “Inhibition mechanism of naphthylphenylamine derivatives acting on the CDC25B dual phosphatase and analysis of the molecular processes involved in the high cytotoxicity exerted by one selected derivative in melanoma cells” (Journal of Enzyme Inhibition and Medicinal Chemistry, 2020).

Key:
A2058 cells = experiment: Western blotting of total cell extracts (CDC25A, -B, -C, p53, pAkt); assay type: cell-based, human; conditions: 10 µM
Procedure: (§1) To obtain the total protein extract, cells were seeded into 6-well-plates (3 × 10^5 cells/plate) for 24 h at 37 °C and then treated with 4a or 0.5% (v/v) DMSO. After treatment, cells were harvested, washed with PBS, and then lysed in ice-cold modified radio immunoprecipitation assay (RIPA) buffer (50 mM Tris•HCl, pH 7.4, 150 mM NaCl, 1% Nonidet P-40, 0.25% sodium deoxycholate, 1 mM Na3VO4 and 1 mM NaF), supplemented with protease inhibitors and incubated for 30 min on ice. The supernatant, obtained after centrifugation at 13200 g for 30 min at 4 °C, constituted the total protein extract. Protein concentration was determined by the Bradford method, using bovine serum albumin (BSA) as standard. To obtain the cytosolic and mitochondrial fractions, cells were plated at a density of 2 × 10^6 cells/plate for 24 h at 37 °C. After the treatment with 4a or 0.5% (v/v) DMSO, cells were harvested, washed in PBS, and then resuspended in buffer A (5 mM Hepes, pH 7.4, 250 mM mannitol, 0.5 mM EGTA, 0.1% BSA), supplemented with protease inhibitors, and homogenised. The homogenate was centrifuged at 600 g for 5 min at 4 °C and the supernatant was then centrifuged at 10300 g for 10 min at 4 °C. The resulting supernatant represented the cytosolic fraction, whereas the pellet, constituting the mitochondrial fraction was resuspended in RIPA buffer. Protein concentration was determined as previously indicated. Equal amounts of total, cytosolic or mitocondrial protein extracts were used for Western blotting analysis. Briefly, protein samples were dissolved in SDS-reducing loading buffer, run on sodium dodecylsulfate polyacrylamide gel electrophoresis (SDS/PAGE), and then transferred to Immobilon P membrane (Millipore, Saint Louis, MO, USA). The filter was incubated with the specific primary antibody at 4 °C overnight and then with the secondary antibody at room temperature for 1 h. Membranes were then analysed by an enhanced chemiluminescence reaction using WesternBright ECL (Advansta, San Jose, CA, USA) according to manufacturer’s instructions; signals were visualised by autoradiography. The analysis of pAkt protein levels was performed as previously described. Briefly, filters were first incubated with the anti-pAkt primary antibody and then with the secondary antibody and membranes were analysed by an enhanced chemiluminescence reaction as previously indicated. The same filters were then stripped, using AbCam (Cambridge, UK) stripping solution, pH 2 (200 mM glycine, 3.5 mM SDS, 1% Tween-20) at 45 °C for 30 min, washed 3 times with PBS-Tween 0.1%, incubated with anti-Akt primary antibody and then with the relative secondary antibody. Signals were detected as previously specified.

A375 cells = experiment: as above; assay type: cell-based, human; conditions: 10 µM
Procedure: as §1

caspase-3 in A2058 cells = experiment: Caspase-3 fluorimetric activity assay in cell lysates; assay type: cell-based, human; conditions: 10 µM, 24 h
Procedure: (§2) The caspase-3 and caspase-9 enzymatic activity was measured by using caspase-3 and -9 fluorimetric assay kits, respectively, according to the manufacturer’s protocol. Briefly, cells were seeded into 75 cm^2 plates (2 × 10^6 cells/plate) and after 24 h treated with 4a or 0.5% (v/v) DMSO for 24 h. At the end of incubation, cells were collected, washed with phosphate-buffered saline constituted by 10 mM Na2HPO4, 2 mM KH2PO4, pH 7.4, supplemented with 137 mM NaCl and 2.7 mM KCl (PBS), and finally lysed at 4 °C in the cell lysis buffer. Cell lysates were incubated with 50 µM DEVD-AFC or LEHD-AFC substrates at 37 °C for 2 h, to detect caspase-3 or caspase-9 activity, respectively, using a Cary Eclipse spectrofluorimeter. Excitation and emission wavelengths were set at 400 nm and 505 nm, respectively; both excitation and emission slits were set at 10 nm.

caspase-3 in A375 cells = experiment: as above; assay type: cell-based, human; conditions: 10 µM, 24 h
Procedure: as §2

CDC25B = target: T1, CDC25B (Homo sapiens, UniProt P30305); experiment: Kinetic studies of CDC25B phosphatase inhibition (OMFP substrate); assay type: biochemical; conditions: putative from Lineweaver-Burk plots (ref 18), confirmed by the fluorescence studies of this work
T1 sequence (P30305 1-580): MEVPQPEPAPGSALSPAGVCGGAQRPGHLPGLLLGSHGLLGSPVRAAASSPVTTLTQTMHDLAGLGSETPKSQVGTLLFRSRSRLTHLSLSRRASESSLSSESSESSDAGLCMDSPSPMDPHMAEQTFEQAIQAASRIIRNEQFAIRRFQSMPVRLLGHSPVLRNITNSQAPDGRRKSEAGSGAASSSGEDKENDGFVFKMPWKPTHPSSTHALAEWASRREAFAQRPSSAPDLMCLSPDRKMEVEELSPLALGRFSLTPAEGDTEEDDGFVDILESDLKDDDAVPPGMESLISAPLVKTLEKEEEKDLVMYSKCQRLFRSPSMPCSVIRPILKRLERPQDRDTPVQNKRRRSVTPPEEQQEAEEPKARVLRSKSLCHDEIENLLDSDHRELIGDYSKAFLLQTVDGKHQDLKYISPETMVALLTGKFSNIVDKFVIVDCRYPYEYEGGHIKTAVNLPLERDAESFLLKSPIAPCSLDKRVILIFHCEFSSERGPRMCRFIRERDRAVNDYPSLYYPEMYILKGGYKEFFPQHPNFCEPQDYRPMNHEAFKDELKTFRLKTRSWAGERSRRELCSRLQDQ

Inhibition mechanism (CDC25B): uncompetitive
Structure (SMILES): CCOC(=O)c1cccc(Nc2cc(OC)cc3ccccc23)c1 [4a]
p53 protein levels (A2058 cells; 16- and 24-h): clear and significant increase | pAkt protein levels (A2058 cells; 30-min): significant and early decrease | CDC25A, -B and -C protein levels (A2058 cells; essentially after 24- and 48-h): reduction of protein levels of all three forms | p53 protein levels (A375 cells; 16- and 24-h): clear and significant increase | pAkt protein levels (A375 cells; 30-min): significant and early decrease | CDC25A, -B and -C protein levels (A375 cells; essentially after 24- and 48-h): reduction of protein levels of all three forms | enzymatic activity of caspase-3 (caspase-3 in A2058 cells): statistically significant increase | enzymatic activity of caspase-3 (caspase-3 in A375 cells): statistically significant increase
